The text below walks through data of US4581359A, “Pharmacological treatments with N-7-substituted derivatives of theophylline” (priority 1984, dated 1986).

For data set [1] the following is noted: in vivo; cited from earlier work.
For data set [2], the system named is mediator-induced broncoconstriction. The note with it: cited from earlier work.
The conditions of data set [3]: cited from earlier work.
A short description of data set [4]: Theophylline (aminophylline) intravenous infusion in rabbits: blood concentration, pharmacokinetics, toxicity (Example 1). The note with it: for visible toxicity: aminophylline 40 mg/kg over 15 minutes, three rabbits. It is filed as in vivo, female New Zealand White rabbits. The protocol:
Analytical grade chemicals were used without further purification. All water was distilled prior to use. 250 mg/10 ml aminophylline injection (Searle Laboratories, Chicago, Ill.) was diluted with an appropriate amount of distilled water for injection. Dyphylline powder (Lemmon Company, Sellersville, Pa.) was dissolved in distilled water for injection.
A high-pressure liquid chromatographic (HPLC) system consisted of a delivery pump (M-6000A, Waters Associates, Milford, Mass.), sample injection apparatus (Model U6K, Waters Associates, Milford, Mass.), 30-cm reverse phase column (μBondapak C18, Waters Associates, Milford, Mass.), UV detector (Model 440, Waters Associates, Milford, Mass.) with wavelength of 280 nm and a dual pen recorder (Soltec Co., Encino, Calif.) which were used at ambient temperature.
The internal standard used was β-hydroxypropyl theophylline (Aldrich Chemical Co., Inc., Milwaukee, Wis.) in acetonitrile which was prepared in a 500 ml volumetric flask as a stock solution, and kept tightly sealed except during use throughout the experiment. Internal standard solution (0.4 ml) was added to an equal volume (0.4 ml) of sample to precipitate protein. After centrifuging for 10 minutes, the supernatant was injected into the HPLC. The HPLC operating conditions included a mobile phase composed of acetonitrile (6 percent V/V) in distilled water and a flow rate of 2.0 ml/min.
A typical semilogrithmic plot of a blood theophylline concentration versus time curves, for each of the three rabbits after a zero-order aminophylline infusion of 40 mg/kg over fifteen minutes, is shown in FIG. 2. The data were fitted to a two-compartment open pharmacokinetic model with first order elimination using PROPHET (PROPHET computer system, FIT FUN routine, Director, Chemical/Biological Information Handling Program, Division of Research Resources, NIH, Bethesda, MD.) The parameters generated from three rabbits were corrected for infusion time, (as described by Gibaldi) and are listed in Table II.

Data set [5] is described as follows: Concomitant dyphylline and aminophylline in two horses: plasma concentration, blood pressure, pulse (Example 3). The note with it: for Cmax: peak plasma concentration of theophylline.
Method: Two horses were administered dyphylline and aminophylline concomitantly.
The second horse was given a bolus injection of dyphylline (20 mg/kg as 100 mg/ml solution in D5W) over 15 seconds into the jugular vein. Aminophylline infusion (10 mg/kg dissolved in one liter of D5W) was started immediately and administered over 20 minutes.
A short description of data set [6]: Fatal toxicity of theophylline, repeated aminophylline infusion in rabbits (Example 1). It is filed as in vivo, female New Zealand White rabbits. Conditions: for Vd: rabbit, blood, iv. The protocol: Aminophylline (40 mg/kg) was infused into four rabbits over fifteen minutes once every two hours until the rabbits died. After the first infusion, blood concentrations of theophylline averaged about 100 mcg/ml in all four rabbits. […] In the second period total xanthine blood concentrations of theophylline averaged about 250 mcg/ml. Three rabbits died in this period with theophylline blood concentrations of about 250 mcg/ml. One rabbit died shortly after the third infusion which gave a blood theophylline concentration of about 400 mcg/ml. […] The last blood sample for each rabbit was collected immediately after the rabbit died.

Data set [7] is described as follows: Single and combined intravenous methyl xanthines in rabbits: heart rate, deaths, plasma concentrations (Example 6). It is filed as in vivo, female rabbits. The note with it: for heart rate, individual drug treatment: one rabbit each, normal about 220 bpm. The protocol:
T 40 mg/kg of aminophylline infused at the rate of 0.21 ml/min over 30
T/D 40 mg/kg of aminophylline infused at the rate of 0.21 ml/min over 30
T/E 40 mg/kg of aminophylline infused at the rate of 0.21 ml/min over 30
T/P 40 mg/kg of aminophylline infused at the rate of 0.21 ml/min over 30

For data set [8] the following is noted: cited from earlier work. This is another data set of the same source.
The conditions of data set [9]: Winter; cited from earlier work.
The conditions of data set [10]: in vivo.
Method: (§1) One horse was administered acetyl promazine thiamyol sodium, quaifensin, and halothane to produce general anesthesia. Dyphylline (20 mg/kg) was given as an intravenous bolus injection in less than 15 seconds and aminophylline (10 mg/kg) was given as an infusion over about 20 minutes. Plasma and cerebral spinal fluid were collected and assayed by high pressure liquid chromatography for both dyphylline and theophylline.
Data set [11] can be described thus: Concurrent administration of theophylline and dyphylline in rabbits: pharmacokinetics and toxicity (Example 1). The note with it: rabbit, iv, 40 mg/kg. The protocol: All experiments of this example were performed using female New Zealand White rabbits. These rabbits (2.4-3.6 kg) were housed in a controlled environment and allowed free access to water and food.
Before dosing with drug the rabbit ear hair was clipped and treated with hair remover lotion (sold under the trademark NAIR, Carter-Wallace, Inc., New York, N.Y.), a catheter (Quick-Cath, 20 Ga, Travenol Laboratories, Inc., Deerfield, Ill.) and sterile intermittent infusion plug were then inserted in the rabbit's ear vein for infusion. […] For each separate administration of theophylline, a suitable amount of aminophylline (40 mg/kg) was dissolved in distilled water to make 10 ml injectable solution which was administered into a rabbit's ear vein as a continuous infusion over a period of 15 minutes.
Blood samples were collected from an ear vein (in the opposite ear from the infusion) at predetermined time intervals. Before collecting each sample, the rabbit ear was treated topically with xylene to dilate the ear vein for convenient sample collection. Immediately after each blood sample was drawn, 0.4 ml of blood was transfered to the centrifuge tube and 0.4 ml of acetronitrile with appropriate internal standard was added to precipitate the protein and extract drug components. After vortexing well, the blood acetonitrile mixture was centrifuged at 3000×G for ten minutes, and 10 μl of supernatent solution was then injected into the HPLC.
The post infusion data of theophylline were fitted to a two-compartment open model using the same procedure as described above. Although samples were collected while infusion of dyphylline was continuing, only post infusion data were used for dyphylline pharmacokinetic analysis.

Data set [12] in a line: Plasma and cerebral spinal fluid concentrations in an anesthetized horse (Example 4). Conditions: 0, 30 mins, 1 hour, 2 hours, 3 hours, 4 hours, 24 hours; for Cerebral spinal fluid concentration, theophylline: aminophylline 10 mg/kg + dyphylline 20 mg/kg bolus.
Method: as §1
The conditions of data set [13]: cited from earlier work. The source holds these as a separate data set.

“And” between values parts separate entries of the source, which are not always exact repeats. Equal values may be shown once. Read-outs that look alike come from different tables or passages of the source.

Take `Cn1c(=O)c2c(ncn2CC(=O)O)n(C)c1=O` [acephylline, 1,3-dimethylxanthinylacetic acid]: the oral absorption entry in [1] was “not absorbed orally”. In data set [2] (guinea-pigs), the “efficacy against mediator-induced broncoconstriction” value was “ineffective”. The “conversion to theophylline in the body” value in data set [3] (literature) was “not converted to theophylline in the body”.

In the case of `Cn1c(=O)c2[nH]cnc2n(C)c1=O` [aminophylline], the visible toxicity entry in [4] is “caused some visible toxicity but was not lethal”. In addition, the “Pulse, Horse 1” value in data set [5] (10 min to 240 min as for systolic, Horse 1, time 0: 42) was 44 beats per minute and 60 beats per minute and 56 beats per minute. The “Blood pressure Mean, Horse 1” value in [5] (10 min to 240 min as for systolic, Horse 1, time 0: 119) is 106 and 156 and 123. Further, the “Blood pressure D, Horse 1” value in data set [5] (10 min to 240 min as for systolic, Horse 1, time 0: 156/98) was 83 and 117 and 90. Further, the toxicity and death result in [6] (aminophylline 40 mg/kg every two hours until death) is “All the rabbits died following a short period of severe convulsions”.

Regarding `Cn1c(=O)c2c(ncn2CCO)n(C)c1=O` [etophylline, β-hydroxyethylthophylline], in [2] (based on effective plasma drug concentrations), the “activity relative to theophylline” value is given as 0.44 times theophylline. Moreover, the “heart rate, individual drug treatment” value in [7] was found to be 100 bpm. Besides, the “conversion to theophylline in the body” value in data set [3] (in vivo) was “not converted to theophylline in the body”.

Consider `CC(O)Cn1cnc2c1c(=O)n(C)c(=O)n2C` (stereo not drawn) [proxyphylline, 7-β-hydroxypropyl-theophylline], for which the “plasma concentration of proxyphylline” value in data set [8] (combined with theophylline and dyphylline (Bracher; Werdermann)) is “less than 9.0 mcg/ml”. The “plasma concentration, each drug” value in data set [8] (dyphylline and proxyphylline (Joos et al.), 90 min) is “about 13 mcg/ml”. In data set [7], the “heart rate, individual drug treatment” value is reported as “about 96 bpm”.

Take `Cn1c(=O)c2[nH]cnc2n(C)c1=O` [theophylline]: in data set [9], the “total volume of distribution, average” value is reported as “about 0.48 L/kg”. For the same compound, the “penetration into cerebral spinal fluid” value in data set [10] is given as “penetrate into cerebral spinal fluid”. Further, the Vd in [11] (in vivo, Vd(B), theophylline followed by dyphylline, b237, b241, b245, b249 rabbits 45-48, b250 mean) is 0.35 L/kg; in data set [11] (Vc), 0.151 L/kg; in [11] (Vd(B)) it was 0.403 L/kg; in data set [11] (average total volume of distribution of theophylline given with dyphylline), around 0.35 L/kg; in data set [4] (rabbit, in vivo, iv, 40 mg/kg, Vd) it was 0.279 L/kg; in data set [4] (rabbit, in vivo, iv, 40 mg/kg, Vel (β)), 0.562 L/kg. Besides, the Vd in [4] (rabbit, in vivo, iv, 40 mg/kg, average total volume of distribution of theophylline given alone) is around 0.59 L/kg; in data set [6] (40 mg/kg, from FIG. 3 data 1 to 2 hours, prior to second infusion, read-out: volume of distribution (Vd), individual rabbits) it was 0.37 L/kg; in data set [6] (40 mg/kg, from FIG. 3 data 1 to 2 hours, four rabbits, read-out: volume of distribution (Vd), average), 0.35 L/kg. Also, the concentration at 0.25 h in data set [11] was around 150 µg/mL; in data set [4] (rabbit, in vivo, iv, 40 mg/kg, average blood concentration of theophylline immediately after stopping the infusion, Table II rabbits), around 100 µg/mL; in data set [4] (rabbit, in vivo, iv, 40 mg/kg, blood concentration of theophylline when the infusion was stopped) it was 110 to 130 µg/mL. For the same compound, the half-life in data set [11] (average half-life of theophylline) is 6 to 6.5 h; in data set [4] (rabbit, in vivo, iv, 40 mg/kg, aminophylline 40 mg/kg, alone, rabbits 29, 30, 32, mean) it was 5.73 h. For the same compound, the visible toxicity result in [4] is “one rabbit exhibited obvious signs of theophylline toxicity”. The t1/2 in data set [4] (aminophylline 40 mg/kg, alone, rabbits 29, 30, 32, mean, 40 mg/kg) was 6.3 h and 6.861 h and 6.30 h. The k el in data set [4] (rabbit, in vivo, iv, 40 mg/kg, k10) was 6.75e-05 s⁻¹. The figures for the “Cerebral spinal fluid concentration, theophylline” value in [12] and in data set [12] (10 mg/kg) were 0 µg/mL and 5.3 µg/mL, respectively. Moreover, the “Plasma concentration, theophylline” value in [12] (aminophylline 10 mg/kg over 20 min + dyphylline 20 mg/kg bolus) worked out at 0 ng/mL. In addition, the effective plasma concentration in data set [13] (humans) was 10 to 20 µg/mL. Moreover, in data set [13] (literature), the “effectiveness and toxicity, dyphylline versus theophylline” value is “more effective and toxic than dyphylline”. Further, the “effects of excessive dose or too rapid administration” value in data set [13] (total dose in less than about twenty minutes) is “blood pressure drop and may develop convulsions which in some instances lead to death”. The concentration at 40 min in [5] (horse, in vivo, iv, 10 mg/kg) lay in the range of 9 to 10 µg/mL. Further, the Cmax in [5] (horse, in vivo, iv, 10 mg/kg, first horse, aminophylline 10 mg/kg over 17 minutes, dyphylline 20 mg/kg bolus at 40 minutes) came to 18 µg/mL; in data set [5] (horse, in vivo, iv, 10 mg/kg, second horse, dyphylline 20 mg/kg bolus then aminophylline 10 mg/kg over 20 minutes), 35 µg/mL. In [6] (four rabbits, all survived first period, 40 mg/kg), the “average blood concentration of theophylline after first infusion” value is “about 100 mcg/ml”. In addition, the “volume of distribution (Vd), individual rabbits” value in data set [6] (from FIG. 3 data 1 to 2 hours, prior to second infusion, 40 mg/kg) is 0.32 L/kg and 0.33 L/kg. Besides, the “blood theophylline concentration after third infusion (rabbit died)” value in data set [6] (one rabbit, 40 mg/kg) was “about 400 mcg/ml”. The “average blood concentration of theophylline, second period (three rabbits died)” value in [6] (second infusion, 40 mg/kg) was “about 250 mcg/ml”. Also, the “theophylline concentration causing convulsions and death” value in data set [6] (theophylline alone) was around 250 µg/mL. Also, the toxicity entry in data set [7] (rabbits) was “close to lethal”. In data set [3] (literature), the tissue distribution entry is “penetrate the central nervous system, to infiltrate heart tissue and to distribute to lung tissue”.
